Assay results as given in patent US10208030B2, “GPR119 agonist compounds” (Mankind Pharma Ltd., priority 2016, dated 2019).

The compounds below were run against T1, hGPR119 (Homo sapiens, UniProt Q8TDV5) (assay: In vitro cyclic AMP assay (Cisbio HTRF) in CHO-hGPR119 cells). Details: 1 h, cAMP, 1 μM, 60 min, read-out: Induction (% induction at 1 μM).
T1 construct: expressed in transfected cells; host or cells: CHO cells (CHO-hGPR119)
T1 sequence (Q8TDV5 1-335): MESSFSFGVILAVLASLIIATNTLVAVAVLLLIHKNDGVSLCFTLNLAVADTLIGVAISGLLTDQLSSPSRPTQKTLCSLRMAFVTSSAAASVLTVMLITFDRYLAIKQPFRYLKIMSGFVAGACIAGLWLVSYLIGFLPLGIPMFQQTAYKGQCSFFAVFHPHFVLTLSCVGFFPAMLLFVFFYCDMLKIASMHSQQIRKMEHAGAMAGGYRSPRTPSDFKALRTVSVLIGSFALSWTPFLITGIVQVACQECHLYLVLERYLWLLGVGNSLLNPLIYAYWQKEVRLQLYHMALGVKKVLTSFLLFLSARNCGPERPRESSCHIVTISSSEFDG
Format: cell-based
Description: cAMP measurements were done using Cisbio dynamic 2 HTRF kit according to the manufacturer's protocol. Briefly, CHO-hGPR119 cells were plated at a cell density of 5000 cells/well/5 μl into a white small volume 384 well plate. The final concentrations of IBMX and DMSO used were 1 mM and 0.5% respectively. Cells were treated with various concentrations of the test compound for 60 min at room temperature. Cells were lysed by buffer containing Anti-cAMP antibody and d2-cAMP reagents and incubated for 1 hour at room temperature. HTRF was measured at 337 nm excitation and emission wavelengths of 665 nm and 620 nm on a microplate reader (Flurostar, BMG Labtech). Graphpad prism software was utilized for EC50 determinations.

Point of comparison: `CC(C)c1noc(N2CCC(C(C)Oc3nn4cc(-c5ccncc5)nc4s3)CC2)n1` (stereo not shown) [Compound 1050, 3-isopropyl-5-(4-(1-((6-(pyridin-4-yl)imidazo[2,1-b][1,3,4]thiadiazol-2-yl)oxy)ethyl)piperidin-1-yl)-1,2,4-oxadiazole], activation at 1 µM 68%. Against it:
- CC(C)c1noc(N2CCC(COc3nc(-c4ccc(S(C)(=O)=O)cc4)ns3)CC2)n1 [Compound 1117, 4-((3-(4-(methylsulfonyl)phenyl)-1,2,4-thiadiazol-5-yloxy)methyl)-1-(3-isopropyl-1,2,4-oxadiazol-5-yl)piperidine] — lower, 2%
- CC(C)OC(=O)N1CCC(N(C)c2nn3cc(-c4ccc(S(C)(=O)=O)cc4)nc3s2)CC1 [Compound 1022, isopropyl 4-(methyl(6-(4-(methylsulfonyl)phenyl)imidazo[2,1-b][1,3,4]thiadiazol-2-yl)amino)piperidine-1-carboxylate] — lower, 16%
- CCOC(=O)N1CCC(C(C)Oc2nn3cc(-c4ccc(S(C)(=O)=O)cc4F)nc3s2)CC1 (stereo not shown) [Compound 1107, Ethyl 4-(1-(6-(2-fluoro-4-(methylsulfonyl)phenyl)imidazo[2,1-b][1,3,4]thiadiazol-2-yloxy)ethyl)piperidine-1-carboxylate] — lower, 67%
- CC(Oc1nn2cc(-c3ccc(S(C)(=O)=O)cc3)nc2s1)C1CCN(c2nc(C(F)(F)F)no2)CC1 (stereo not shown) [Compound 1073, 2-(1-(1-(3-(trifluoromethyl)-1,2,4-oxadiazol-5-yl)piperidin-4-yl)ethoxy)-6-(4-(methylsulfonyl)phenyl)imidazo[2,1-b][1,3,4]thiadiazole] — lower, 33%
- CCc1cnc(N2CCC(C(C)Oc3nn4cc(-c5ccc(S(C)(=O)=O)nc5F)nc4s3)CC2)nc1 (stereo in doubt) [Compound 1102, 2-((S)-1-(1-(5-ethylpyrimidin-2-yl)piperidin-4-yl)ethoxy)-6-(2-fluoro-6-(methylsulfonyl)pyridin-3-yl)imidazo[2,1-b][1,3,4]thiadiazole] — higher, 84%
- CC(C)c1noc(C2CCN(c3nsnc3COc3ccc(S(C)(=O)=O)cc3F)CC2)n1 [Compound 1006, 5-(1-(4-((2-fluoro-4-(methylsulfonyl)phenoxy)methyl)-1,2,5-thiadiazol-3-yl)piperidin-4-yl)-3-isopropyl-1,2,4-oxadiazole] — lower, 9%
- CCCc1cnc(N2CCC(Oc3nc(-c4ccc(S(C)(=O)=O)nc4)ns3)CC2)nc1 [Compound 1123, 2-(4-(3-(6-(methylsulfonyl)pyridin-3-yl)-1,2,4-thiadiazol-5-yloxy)piperidin-1-yl)-5-propylpyrimidine] — lower, 18%
- C[C@@H](Oc1nn2cc(-c3ccc(S(C)(=O)=O)cc3)nc2s1)C1CCN(c2nc(C(F)(F)F)no2)CC1 [Compound 1076, 2-((R)-1-(1-(3-(trifluoromethyl)-1,2,4-oxadiazol-5-yl)piperidin-4-yl)ethoxy)-6-(4-(methylsulfonyl)phenyl)imidazo[2,1-b][1,3,4]thiadiazole] — lower, 15%
- CC(C)c1noc(N2CCC(C(C)Oc3nn4cc(-c5ccc(S(C)(=O)=O)cc5)nc4s3)CC2)n1 (stereo not shown) [Compound 1057, 3-isopropyl-5-(4-(1-((6-(4-(methylsulfonyl)phenyl)imidazo[2,1-b][1,3,4]thiadiazol-2-yl)oxy)ethyl)piperidin-1-yl)-1,2,4-oxadiazole] — higher, 82%
- CC(Oc1nn2cc(-c3ccc(S(C)(=O)=O)cc3F)nc2s1)C1CCN(C(=O)OC2(C)CC2)CC1 (stereo not shown) [Compound 1110, 1-methylcyclopropyl 4-(1-(6-(2-fluoro-4-(methylsulfonyl)phenyl)imidazo[2,1-b][1,3,4]thiadiazol-2-yloxy)ethyl)piperidine-1-carboxylate] — higher, 71%
- CC(C)c1noc(N2CCC(C(C)Oc3nn4cc(-c5ccc(C#N)cc5)nc4s3)CC2)n1 (stereo not shown) [Compound 1047, 4-(2-(1-(1-(3-isopropyl-1,2,4-oxadiazol-5-yl)piperidin-4-yl)ethoxy)imidazo[2,1-b][1,3,4]thiadiazol-6-yl)benzonitrile] — lower, 51%
- CC(C)c1noc(N2CCC(COc3nsc(-c4ccc(S(C)(=O)=O)nc4)n3)CC2)n1 [Compound 1120, 5-(3-((1-(3-isopropyl-1,2,4-oxadiazol-5-yl)piperidin-4-yl)methoxy)-1,2,4-thiadiazol-5-yl)-2-(methylsulfonyl)pyridine] — lower, 15%
- C[C@H](Oc1nn2cc(-c3ccc(S(C)(=O)=O)cc3)nc2s1)C1CCN(c2ncc(Cl)cn2)CC1 [Compound 1083, 2-((S)-1-(1-(5-chloropyrimidin-2-yl)piperidin-4-yl)ethoxy)-6-(4-(methylsulfonyl)phenyl)imidazo[2,1-b][1,3,4]thiadiazole] — higher, 77%
- CC(C)c1noc(N2CCC(COc3nsnc3OCC3CCN(c4nc(C(C)C)no4)CC3)CC2)n1 [Compound 1011, 3,4-bis((1-(3-isopropyl-1,2,4-oxadiazol-5-yl)piperidin-4-yl)methoxy)-1,2,5-thiadiazole] — lower, 2%
- CCCc1cnc(N2CCC([C@H](C)Oc3nn4cc(-c5ccnc(OC)c5)nc4s3)CC2)nc1 [Compound 1094, 2-((S)-1-(1-(5-propylpyrimidin-2-yl)piperidin-4-yl)ethoxy)-6-(2-methoxypyridin-4-yl)imidazo[2,1-b][1,3,4]thiadiazole] — the same, 68%
- COc1cc(S(C)(=O)=O)ccc1-c1cn2nc(O[C@@H](C)C3CCN(c4nc(C(C)C)no4)CC3)sc2n1 [Compound 1103, 2-((S)-1-(1-(3-isopropyl-1,2,4-oxadiazol-5-yl)piperidin-4-yl)ethoxy)-6-(2-methoxy-4-(methylsulfonyl)phenyl)imidazo[2,1-b][1,3,4]thiadiazole] — lower, 9%
- CCc1cnc(N2CCC([C@H](C)Oc3nn4cc(-c5ccnc(OC)c5)nc4s3)CC2)nc1 [Compound 1093, 2-((S)-1-(1-(5-ethylpyrimidin-2-yl)piperidin-4-yl)ethoxy)-6-(2-methoxypyridin-4-yl)imidazo[2,1-b][1,3,4]thiadiazole] — higher, 75%
- CC(C)c1noc(C2CCN(c3nc(-c4ccc(S(C)(=O)=O)cc4)ns3)CC2)n1 [Compound 1114, 4-(3-isopropyl-1,2,4-oxadiazol-5-yl)-1-(3-(4-(methylsulfonyl)phenyl)-1,2,4-thiadiazol-5-yl)piperidine] — lower, 4%
- CC(C)OC(=O)N1CCC(c2cn3nc(-c4ccc(S(C)(=O)=O)cc4)sc3n2)CC1 [Compound 1030, isopropyl 4-(2-(4-(methylsulfonyl)phenyl)imidazo[2,1-b][1,3,4]thiadiazol-6-yl)piperidine-1-carboxylate] — lower, 26%
- CC(C)c1noc(C2CCN(c3nn4cc(-c5ccc(S(C)(=O)=O)cc5)nc4s3)CC2)n1 [Compound 1016, 3-isopropyl-5-(1-(6-(4-(methylsulfonyl)phenyl)imidazo[2,1-b][1,3,4]thiadiazol-2-yl)piperidin-4-yl)-1,2,4-oxadiazole] — lower, 54%
- CC(C)c1noc(N2CCC(c3cn4nc(-c5ccc(S(C)(=O)=O)cc5)sc4n3)CC2)n1 [Compound 1032, 3-isopropyl-5-(4-(2-(4-(methylsulfonyl)phenyl)imidazo[2,1-b][1,3,4]thiadiazol-6-yl)piperidin-1-yl)-1,2,4-oxadiazole] — lower, 41%
- C[C@H](Oc1nn2cc(-c3ccc(S(C)(=O)=O)cc3)nc2s1)C1CCN(c2nc(C(F)(F)F)no2)CC1 [Compound 1077, 2-((S)-1-(1-(3-(trifluoromethyl)-1,2,4-oxadiazol-5-yl)piperidin-4-yl)ethoxy)-6-(4-(methylsulfonyl)phenyl)imidazo[2,1-b][1,3,4]thiadiazole] — lower, 33%
- CC(C)c1noc(N2CCC(C(C)Oc3nc(-c4ccc(S(C)(=O)=O)cc4)ns3)CC2)n1 (stereo not shown) [Compound 1115, 4-(1-(3-(4-(methylsulfonyl)phenyl)-1,2,4-thiadiazol-5-yloxy)ethyl)-1-(3-isopropyl-1,2,4-oxadiazol-5-yl)piperidine] — lower, 14%
- Cc1cc(S(C)(=O)=O)ccc1-c1cn2nc(O[C@@H](C)C3CCN(c4nc(C(C)C)no4)CC3)sc2n1 [Compound 1112, 2-((S)-1-(1-(3-isopropyl-1,2,4-oxadiazol-5-yl)piperidin-4-yl)ethoxy)-6-(2-methyl-4-(methylsulfonyl)phenyl)imidazo[2,1-b][1,3,4]thiadiazole] — higher, 71%
- COc1cnccc1-c1cn2nc(OC(C)C3CCN(c4nc(C(C)C)no4)CC3)sc2n1 (stereo not shown) [Compound 1095, 2-(1-(1-(3-isopropyl-1,2,4-oxadiazol-5-yl)piperidin-4-yl)ethoxy)-6-(3-methoxypyridin-4-yl)imidazo[2,1-b][1,3,4]thiadiazole] — lower, 8%
- CC(C)c1noc(N2CCC(COc3nn4cc(-c5ccc(S(C)(=O)=O)cc5)nc4s3)CC2)n1 [Compound 1017, 3-isopropyl-5-(4-(((6-(4-(methylsulfonyl)phenyl)imidazo[2,1-b][1,3,4]thiadiazol-2-yl)oxy)methyl)piperidin-1-yl)-1,2,4-oxadiazole] — lower, 39%

Same assay, conditions: cAMP, class symbols, legend not given

In the case of `CCc1cnc(N2CCC(C(C)Oc3nn4cc(-c5ccc(S(C)(=O)=O)nc5F)nc4s3)CC2)nc1` (stereo in doubt) [Compound 1102, 2-((S)-1-(1-(5-ethylpyrimidin-2-yl)piperidin-4-yl)ethoxy)-6-(2-fluoro-6-(methylsulfonyl)pyridin-3-yl)imidazo[2,1-b][1,3,4]thiadiazole], the EC50 is reported as “A+”.
